Assay results reported in US10221197B2, “Phosphatidylinositol 3-kinase inhibitors” (Gilead Sciences, Inc., priority 2014, dated 2019).
Counter-ions that a name gives are not always drawn. Like-named read-outs stand apart in the source and are kept apart here.

Key:
Assay type in all cases: biochemical
PI3Kβ = PI3Kβ (Homo sapiens (Human), UniProt P42338); test: TR-FRET enzymatic assay of PI3K isoforms (PI3Kβ); details: TR-FRET, 2×Km ATP, 2 μM PIP2, incubated for 30 minutes at 25° C.; read-out: β IC50
Method: (§1) The compounds of formula (I) were characterized for their enzymatic activity against the PI3K isoforms. Certain compounds of the present application, including certain compounds of formula (II) and (III) were also characterized for their enzymatic activity against PI3K isoforms. The activities were measured using a time-resolved fluorescence resonance energy transfer (TR-FRET) assay.

PI3Kδ = PI3Kδ (Homo sapiens (Human), UniProt O00329); test: TR-FRET enzymatic assay of PI3K isoforms (PI3Kδ); details: 2×Km ATP, 2 μM PIP2, incubated for 30 minutes at 25° C., read-out: δ IC50
Method: as §1

PI3Kγ = PI3Kγ (Homo sapiens (Human), UniProt P48736); test: TR-FRET enzymatic assay of PI3K isoforms (PI3Kγ); details: read-out: γ IC50
Method: as §1

[1] = TR-FRET, 2×Km ATP, 2 μM PIP2, PI3Kγ at 2 nM, incubated for 30 minutes at 25° C.

Sequence of PI3Kγ (P48736 whole entry, canonical isoform): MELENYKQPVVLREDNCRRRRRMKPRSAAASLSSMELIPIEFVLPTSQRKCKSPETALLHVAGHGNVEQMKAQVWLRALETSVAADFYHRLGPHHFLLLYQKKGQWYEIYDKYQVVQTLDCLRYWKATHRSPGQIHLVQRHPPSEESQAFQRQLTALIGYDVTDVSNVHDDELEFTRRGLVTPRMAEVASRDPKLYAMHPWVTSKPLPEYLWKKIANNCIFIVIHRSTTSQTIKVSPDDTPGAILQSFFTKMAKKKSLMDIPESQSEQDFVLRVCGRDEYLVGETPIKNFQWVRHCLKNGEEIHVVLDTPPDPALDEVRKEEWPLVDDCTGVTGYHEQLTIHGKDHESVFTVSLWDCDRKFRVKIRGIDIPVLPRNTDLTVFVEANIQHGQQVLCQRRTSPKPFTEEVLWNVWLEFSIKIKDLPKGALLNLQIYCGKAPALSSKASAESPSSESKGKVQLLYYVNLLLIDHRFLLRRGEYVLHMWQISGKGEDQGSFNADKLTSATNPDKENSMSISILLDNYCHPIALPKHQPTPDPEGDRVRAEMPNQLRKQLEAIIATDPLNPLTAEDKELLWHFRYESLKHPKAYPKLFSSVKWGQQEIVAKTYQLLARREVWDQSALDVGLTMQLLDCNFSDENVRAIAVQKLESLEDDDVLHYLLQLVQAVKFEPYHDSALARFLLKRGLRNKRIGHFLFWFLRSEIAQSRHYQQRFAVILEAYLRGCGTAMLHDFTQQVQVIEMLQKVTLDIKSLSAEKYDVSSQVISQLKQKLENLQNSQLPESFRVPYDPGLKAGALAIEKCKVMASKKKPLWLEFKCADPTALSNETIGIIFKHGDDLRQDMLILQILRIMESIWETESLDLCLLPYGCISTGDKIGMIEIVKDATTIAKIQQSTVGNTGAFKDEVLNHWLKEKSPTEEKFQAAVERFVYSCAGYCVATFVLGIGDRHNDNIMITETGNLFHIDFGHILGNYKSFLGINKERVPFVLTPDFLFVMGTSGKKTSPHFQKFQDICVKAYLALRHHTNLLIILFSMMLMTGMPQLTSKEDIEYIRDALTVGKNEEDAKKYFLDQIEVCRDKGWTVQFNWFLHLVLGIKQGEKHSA
Sequence of PI3Kγ (Q8WYR1 whole entry partner, canonical isoform): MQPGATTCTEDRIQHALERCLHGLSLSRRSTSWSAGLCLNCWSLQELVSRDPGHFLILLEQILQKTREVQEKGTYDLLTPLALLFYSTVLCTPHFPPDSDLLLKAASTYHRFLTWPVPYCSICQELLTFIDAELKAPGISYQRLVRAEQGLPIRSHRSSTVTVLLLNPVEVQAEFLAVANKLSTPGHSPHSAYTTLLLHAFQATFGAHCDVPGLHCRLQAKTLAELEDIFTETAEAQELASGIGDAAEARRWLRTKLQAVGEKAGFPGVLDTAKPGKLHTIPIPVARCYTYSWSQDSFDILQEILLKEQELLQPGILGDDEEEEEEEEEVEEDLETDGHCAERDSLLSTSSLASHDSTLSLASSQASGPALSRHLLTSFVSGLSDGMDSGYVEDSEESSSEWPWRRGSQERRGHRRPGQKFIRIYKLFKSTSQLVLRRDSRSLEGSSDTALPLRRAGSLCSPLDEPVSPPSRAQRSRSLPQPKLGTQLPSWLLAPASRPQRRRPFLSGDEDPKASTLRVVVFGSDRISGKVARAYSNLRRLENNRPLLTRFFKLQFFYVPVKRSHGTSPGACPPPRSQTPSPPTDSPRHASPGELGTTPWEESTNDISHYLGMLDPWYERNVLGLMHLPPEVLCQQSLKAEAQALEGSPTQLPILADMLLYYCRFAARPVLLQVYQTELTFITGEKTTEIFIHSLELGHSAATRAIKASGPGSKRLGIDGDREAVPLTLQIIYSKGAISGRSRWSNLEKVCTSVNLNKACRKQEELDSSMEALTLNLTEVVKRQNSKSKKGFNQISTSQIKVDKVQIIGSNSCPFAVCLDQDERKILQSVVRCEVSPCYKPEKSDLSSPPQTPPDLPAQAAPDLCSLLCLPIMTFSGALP
Sequence of PI3Kβ (P42338 whole entry, canonical isoform): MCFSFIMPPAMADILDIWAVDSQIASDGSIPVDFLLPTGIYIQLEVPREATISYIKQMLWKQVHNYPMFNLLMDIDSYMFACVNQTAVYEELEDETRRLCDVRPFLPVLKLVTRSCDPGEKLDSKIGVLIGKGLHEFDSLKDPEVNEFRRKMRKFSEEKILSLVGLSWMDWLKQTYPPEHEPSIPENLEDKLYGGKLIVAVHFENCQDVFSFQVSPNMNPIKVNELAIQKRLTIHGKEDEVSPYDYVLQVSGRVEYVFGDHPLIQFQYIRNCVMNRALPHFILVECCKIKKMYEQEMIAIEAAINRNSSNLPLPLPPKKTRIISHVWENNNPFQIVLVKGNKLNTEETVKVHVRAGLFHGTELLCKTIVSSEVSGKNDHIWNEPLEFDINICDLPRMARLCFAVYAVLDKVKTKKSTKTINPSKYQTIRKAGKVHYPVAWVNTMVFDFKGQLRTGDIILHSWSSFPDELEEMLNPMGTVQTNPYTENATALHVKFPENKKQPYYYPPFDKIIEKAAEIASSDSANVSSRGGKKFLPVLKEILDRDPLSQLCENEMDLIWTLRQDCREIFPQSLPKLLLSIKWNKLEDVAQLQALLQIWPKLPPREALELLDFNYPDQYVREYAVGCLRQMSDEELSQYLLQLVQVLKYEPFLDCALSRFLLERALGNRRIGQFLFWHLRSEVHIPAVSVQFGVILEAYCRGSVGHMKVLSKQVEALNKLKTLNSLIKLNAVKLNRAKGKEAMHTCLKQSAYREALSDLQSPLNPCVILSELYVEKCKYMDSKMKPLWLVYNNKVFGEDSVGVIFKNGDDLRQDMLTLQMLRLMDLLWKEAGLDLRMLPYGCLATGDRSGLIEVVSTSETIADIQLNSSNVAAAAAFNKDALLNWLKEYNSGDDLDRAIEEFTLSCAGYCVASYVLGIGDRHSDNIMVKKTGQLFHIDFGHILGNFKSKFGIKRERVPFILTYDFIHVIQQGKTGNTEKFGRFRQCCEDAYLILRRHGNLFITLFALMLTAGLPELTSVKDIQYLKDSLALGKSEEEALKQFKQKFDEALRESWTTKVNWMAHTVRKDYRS
Sequence of PI3Kβ (P27986 whole entry partner, canonical isoform): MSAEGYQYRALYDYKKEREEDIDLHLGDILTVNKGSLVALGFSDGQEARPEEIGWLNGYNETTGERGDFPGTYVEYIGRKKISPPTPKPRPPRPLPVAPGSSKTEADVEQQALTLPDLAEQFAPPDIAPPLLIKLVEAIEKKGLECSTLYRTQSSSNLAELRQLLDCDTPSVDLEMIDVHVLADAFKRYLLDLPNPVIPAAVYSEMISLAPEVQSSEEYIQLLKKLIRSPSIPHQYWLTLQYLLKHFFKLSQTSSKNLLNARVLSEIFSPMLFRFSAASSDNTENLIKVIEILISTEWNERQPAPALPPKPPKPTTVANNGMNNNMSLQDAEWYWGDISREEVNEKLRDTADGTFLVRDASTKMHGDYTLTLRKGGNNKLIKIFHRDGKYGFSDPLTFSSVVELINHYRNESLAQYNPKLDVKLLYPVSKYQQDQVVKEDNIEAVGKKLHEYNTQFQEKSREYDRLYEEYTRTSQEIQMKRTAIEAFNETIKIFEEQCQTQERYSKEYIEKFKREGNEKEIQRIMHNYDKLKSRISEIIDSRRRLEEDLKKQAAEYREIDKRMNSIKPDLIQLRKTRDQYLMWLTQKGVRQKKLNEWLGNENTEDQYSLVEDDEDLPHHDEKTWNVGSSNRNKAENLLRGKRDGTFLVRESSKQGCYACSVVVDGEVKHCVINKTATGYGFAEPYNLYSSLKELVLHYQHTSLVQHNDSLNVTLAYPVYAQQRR
Sequence of PI3Kδ (O00329 whole entry, canonical isoform): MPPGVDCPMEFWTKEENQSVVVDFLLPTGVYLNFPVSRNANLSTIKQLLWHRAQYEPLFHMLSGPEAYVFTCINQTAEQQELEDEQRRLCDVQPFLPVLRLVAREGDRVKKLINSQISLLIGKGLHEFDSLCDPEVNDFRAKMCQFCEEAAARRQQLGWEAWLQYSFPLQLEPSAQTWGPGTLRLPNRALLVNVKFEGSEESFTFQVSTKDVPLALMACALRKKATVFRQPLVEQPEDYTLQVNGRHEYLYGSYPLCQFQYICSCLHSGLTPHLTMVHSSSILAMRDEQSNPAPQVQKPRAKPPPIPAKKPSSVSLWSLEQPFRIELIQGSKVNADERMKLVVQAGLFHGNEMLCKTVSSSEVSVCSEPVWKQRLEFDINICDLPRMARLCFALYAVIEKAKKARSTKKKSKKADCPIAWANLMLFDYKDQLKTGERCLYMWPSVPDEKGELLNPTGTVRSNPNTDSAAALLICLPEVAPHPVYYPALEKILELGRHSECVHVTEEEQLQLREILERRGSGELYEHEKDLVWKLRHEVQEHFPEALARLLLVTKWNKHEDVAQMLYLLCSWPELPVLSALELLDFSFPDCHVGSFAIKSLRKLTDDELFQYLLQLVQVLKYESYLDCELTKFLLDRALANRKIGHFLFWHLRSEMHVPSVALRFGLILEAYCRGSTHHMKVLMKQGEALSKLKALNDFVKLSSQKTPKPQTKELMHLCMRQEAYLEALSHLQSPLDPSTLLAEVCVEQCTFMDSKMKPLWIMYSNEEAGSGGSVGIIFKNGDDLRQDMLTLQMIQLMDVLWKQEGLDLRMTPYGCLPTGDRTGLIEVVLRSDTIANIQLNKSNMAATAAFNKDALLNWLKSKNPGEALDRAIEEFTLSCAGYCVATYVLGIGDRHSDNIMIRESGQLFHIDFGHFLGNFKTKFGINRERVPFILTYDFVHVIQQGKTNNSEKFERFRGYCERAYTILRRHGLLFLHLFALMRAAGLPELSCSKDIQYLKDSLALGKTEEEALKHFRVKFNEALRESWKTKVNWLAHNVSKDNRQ
Sequence of PI3Kδ (P27986 whole entry partner, canonical isoform): as the sequence (P27986 whole entry partner, canonical isoform) above

Structure (SMILES)	IC50 (PI3Kβ)	IC50 (PI3Kδ)	IC50 (PI3Kγ; [1])	IC50 (PI3Kγ)
C[C@H](Nc1ncnc(N)c1C#N)c1nc2cccc(Cl)c2c(=O)n1-c1cccc(NC(=O)NS(=O)(=O)C2CC2)c1 [Compound 81, (S)—N-((3-(2-(1-((6-amino-5-cyanopyrimidin-4-yl)amino)ethyl)-5-chloro-4-oxoquinazolin-3(4H)-yl)phenyl)carbamoyl)cyclopropanesulfonamide]	350 nM	2 nM	2800 nM	
N#Cc1c(N)ncnc1N1CCC[C@H]1c1nc2cccc(Cl)c2c(=O)n1-c1cccc(NC(=O)NCC2OCCO2)c1 [Compound 82, (S)-1-((1,3-dioxolan-2-yl)methyl)-3-(3-(2-(1-(6-amino-5-cyanopyrimidin-4-yl)pyrrolidin-2-yl)-5-chloro-4-oxoquinazolin-3(4H)-yl)phenyl)urea]	29 nM	16 nM	8600 nM	
CCNC(=O)Nc1cccc(-n2c([C@@H]3CCCN3c3ncnc(N)c3C#N)nc3cccc(Cl)c3c2=O)c1 [Compound 83, (S)-1-(3-(2-(1-(6-amino-5-cyanopyrimidin-4-yl)pyrrolidin-2-yl)-5-chloro-4-oxoquinazolin-3(4H)-yl)phenyl)-3-ethylurea]	13 nM	9 nM	3300 nM	
C[C@H](Nc1ncnc2[nH]cnc12)c1nc2cccc(Cl)c2c(=O)n1-c1cccc(NC(N)=O)c1 [Compound 86, (S)-1-(3-(2-(1-((9H-purin-6-yl)amino)ethyl)-5-chloro-4-oxoquinazolin-3(4H)-yl)phenyl)urea]	22 nM	19 nM	4300 nM	
CNC(=O)Nc1cccc(-n2c([C@H](C)Nc3ncnc4[nH]cnc34)nc3cccc(Cl)c3c2=O)c1 [Compound 87, (S)-1-(3-(2-(1-((9H-purin-6-yl)amino)ethyl)-5-chloro-4-oxoquinazolin-3(4H)-yl)phenyl)-3-methylurea]	21 nM	33 nM	4500 nM	
C[C@H](Nc1ncnc(N)c1C#N)c1nc2cccc(Cl)c2c(=O)n1-c1cccc(NC(N)=O)c1 [Compound 88, (S)-1-(3-(2-(1-((6-amino-5-cyanopyrimidin-4-yl)amino)ethyl)-5-chloro-4-oxoquinazolin-3(4H)-yl)phenyl)urea]	4 nM	2 nM	2700 nM	
CNC(=O)Nc1cccc(-n2c([C@H](C)Nc3ncnc(N)c3C#N)nc3cccc(Cl)c3c2=O)c1 [Compound 89, (S)-1-(3-(2-(1-((6-amino-5-cyanopyrimidin-4-yl)amino)ethyl)-5-chloro-4-oxoquinazolin-3(4H)-yl)phenyl)-3-methylurea]	6 nM	6 nM	4300 nM	
CCNC(=O)Nc1cccc(-n2c([C@H](C)Nc3ncnc4[nH]cnc34)nc3cccc(Cl)c3c2=O)c1 [Compound 91, (S)-1-(3-(2-(1-((9H-purin-6-yl)amino)ethyl)-5-chloro-4-oxoquinazolin-3(4H)-yl)phenyl)-3-ethylurea]	32 nM	19 nM	1400 nM	
CCNC(=O)Nc1cccc(-n2c([C@H](C)Nc3ncnc(N)c3C#Cc3ccccn3)nc3cccc(Cl)c3c2=O)c1 [Compound 92]	16 nM	1 nM	1600 nM	
CCNC(=O)Nc1cccc(-n2c([C@H](C)Nc3nc(C)nc(N)n3)nc3cccc(Cl)c3c2=O)c1 [Compound 93, (S)-1-(3-(2-(1-((4-amino-6-methyl-1,3,5-triazin-2-yl)amino)ethyl)-5-chloro-4-oxoquinazolin-3(4H)-yl)phenyl)-3-ethylurea]	70 nM	110 nM	3700 nM	
C[C@H](Nc1ncnc(N)c1C#N)c1nc2cccc(Cl)c2c(=O)n1-c1cccc(NC(=O)Nc2ccccc2C(=O)O)c1 [Compound 96, (S)-2-(3-(3-(2-(1-((6-amino-5-cyanopyrimidin-4-yl)amino)ethyl)-5-chloro-4-oxoquinazolin-3(4H)-yl)phenyl)ureido)benzoic acid]	230 nM	5 nM	2600 nM	
C[C@H](Nc1ncnc(N)c1C#N)c1nc2cccc(Cl)c2c(=O)n1-c1cccc(NC(=O)Nc2ccccc2S(=O)(=O)O)c1 [Compound 97, (S)-2-(3-(3-(2-(1-((6-amino-5-cyanopyrimidin-4-yl)amino)ethyl)-5-chloro-4-oxoquinazolin-3(4H)-yl)phenyl)ureido)benzenesulfonic acid]	120 nM	5 nM	6000 nM	
C[C@H](Nc1ncnc(N)c1C#N)c1nc2cccc(Cl)c2c(=O)n1-c1cccc(NC(=O)Nc2ccccc2OCC(=O)O)c1 [Compound 98, (S)-2-(2-(3-(3-(2-(1-((6-amino-5-cyanopyrimidin-4-yl)amino)ethyl)-5-chloro-4-oxoquinazolin-3(4H)-yl)phenyl)ureido)phenoxy)acetic acid]	58 nM	29 nM	3300 nM	
C[C@H](Nc1ncnc(N)c1C#N)c1nc2cccc(Cl)c2c(=O)n1-c1cccc(NC(=O)Nc2ccc(Cl)c(C(F)(F)F)c2)c1 [Compound 99, (S)-1-(3-(2-(1-((6-amino-5-cyanopyrimidin-4-yl)amino)ethyl)-5-chloro-4-oxoquinazolin-3(4H)-yl)phenyl)-3-(4-chloro-3-(trifluoromethyl)phenyl)urea]	8 nM	19 nM	1600 nM	
C[C@H](Nc1ncnc(N)c1C#N)c1nc2cccc(Cl)c2c(=O)n1-c1cccc(NC(=O)Nc2ccccc2Cl)c1 [Compound 100, (S)-1-(3-(2-(1-((6-amino-5-cyanopyrimidin-4-yl)amino)ethyl)-5-chloro-4-oxoquinazolin-3(4H)-yl)phenyl)-3-(2-chlorophenyl)urea]	1 nM	3 nM	1400 nM	
C[C@H](Nc1ncnc(N)c1C#N)c1nc2cccc(Cl)c2c(=O)n1-c1cccc(NC(=O)Nc2ccncc2Cl)c1 [Compound 111, (S)-1-(3-(2-(1-((6-amino-5-cyanopyrimidin-4-yl)amino)ethyl)-5-chloro-4-oxoquinazolin-3(4H)-yl)phenyl)-3-(3-chloropyridin-4-yl)urea, trifluoroacetic acid salt]	4 nM	7 nM	4300 nM	

Now from value to molecule:

IC50 (PI3Kβ)	IC50 (PI3Kδ)	IC50 (PI3Kγ; [1])	IC50 (PI3Kγ)	Structure (SMILES)
5 nM	13 nM	2500 nM		C[C@H](Nc1ncnc(N)c1C#N)c1nc2cccc(Cl)c2c(=O)n1-c1cccc(NC(=O)Nc2ccccc2C(F)(F)F)c1 [Compound 101, (S)-1-(3-(2-(1-((6-amino-5-cyanopyrimidin-4-yl)amino)ethyl)-5-chloro-4-oxoquinazolin-3(4H)-yl)phenyl)-3-(2-(trifluoromethyl)phenyl)urea]
7 nM	31 nM	670 nM		C[C@H](Nc1ncnc2[nH]cnc12)c1nc2cccc(Cl)c2c(=O)n1-c1cccc(NC(=O)Nc2ccccc2C(F)(F)F)c1 [Compound 102, (S)-1-(3-(2-(1-((9H-purin-6-yl)amino)ethyl)-5-chloro-4-oxoquinazolin-3(4H)-yl)phenyl)-3-(2-(trifluoromethyl)phenyl)urea]
8 nM	30 nM	740 nM		C[C@H](Nc1ncnc2[nH]cnc12)c1nc2cccc(Cl)c2c(=O)n1-c1cccc(NC(=O)Nc2c(Cl)cccc2Cl)c1 [Compound 104, (S)-1-(3-(2-(1-((9H-purin-6-yl)amino)ethyl)-5-chloro-4-oxoquinazolin-3(4H)-yl)phenyl)-3-(2,6-dichlorophenyl)urea]
4800 nM	20 nM		> 10000 nM	C[C@H](Nc1ncnc(N)c1C#N)c1nc2cccc(Cl)c2c(=O)n1-c1cccc(NC(=O)Nc2ccccc2C#N)c1 [Compound 106, (S)-1-(3-(2-(1-((6-amino-5-cyanopyrimidin-4-yl)amino)ethyl)-5-chloro-4-oxoquinazolin-3(4H)-yl)phenyl)-3-(2-cyanophenyl)urea]
16 nM	6 nM	1500 nM		Cc1ccccc1NC(=O)Nc1cccc(-n2c([C@H](C)Nc3ncnc(N)c3C#N)nc3cccc(Cl)c3c2=O)c1 [Compound 107, (S)-1-(3-(2-(1-((6-amino-5-cyanopyrimidin-4-yl)amino)ethyl)-5-chloro-4-oxoquinazolin-3(4H)-yl)phenyl)-3-(o-tolyl)urea]
3 nM	24 nM	8500 nM		C[C@H](Nc1ncnc(N)c1C#N)c1nc2cccc(F)c2c(=O)n1-c1cccc(NC(=O)Nc2ccccc2Cl)c1 [Compound 108, (S)-1-(3-(2-(1-((6-amino-5-cyanopyrimidin-4-yl)amino)ethyl)-5-fluoro-4-oxoquinazolin-3(4H)-yl)phenyl)-3-(2-chlorophenyl)urea]
9 nM	2 nM	2600 nM		COc1ccccc1NC(=O)Nc1cccc(-n2c([C@H](C)Nc3ncnc(N)c3C#N)nc3cccc(Cl)c3c2=O)c1 [Compound 109, (S)-1-(3-(2-(1-((6-amino-5-cyanopyrimidin-4-yl)amino)ethyl)-5-chloro-4-oxoquinazolin-3(4H)-yl)phenyl)-3-(2-methoxyphenyl)urea]
16 nM	57 nM	> 10000 nM		C[C@H](Nc1ncnc(N)c1C#N)c1nc2cccc(F)c2c(=O)n1-c1cccc(NC(=O)Nc2ccccc2C(F)(F)F)c1 [Compound 110, (S)-1-(3-(2-(1-((6-amino-5-cyanopyrimidin-4-yl)amino)ethyl)-5-fluoro-4-oxoquinazolin-3(4H)-yl)phenyl)-3-(2-(trifluoromethyl)phenyl)urea]
